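Grown in 96-well plates, cells were treated for 48 hours with each compound at five concentrations. Insufficient inhibition: endpoint recorded as highest concentration tested. GI50: concentration for 50% inhibition of growth.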 Calls of active or inactive are those of the source. No stated cut-off is given here; in the data, active = GI50 up to about 1.1 µM and inactive = higher.
Columns and labels:
Experiment in all cases: inhibition of tumour cell growth, NCI panel, 48 h
CCRF-CEM = tested on: CCRF-CEM
RPMI-8226 = tested on: RPMI-8226
EKVX = tested on: EKVX
HL-60 = tested on: HL-60
CAKI-1 = tested on: CAKI-1
M14 = tested on: M14
K562 = tested on: K562
UACC-257 = tested on: UACC-257
SK-MEL-5 = tested on: SK-MEL-5
A549 = tested on: A549
COLO 205 = tested on: COLO 205
NCI-H23 = tested on: NCI-H23
RXF 393 = tested on: RXF 393
SR = tested on: SR
Malme-3M = tested on: Malme-3M
LOX IMVI = tested on: LOX IMVI
HT-29 = tested on: HT-29
SF-539 = tested on: SF-539
XF498 = tested on: XF498
DLD-1 = tested on: DLD-1
OVCAR-4 = tested on: OVCAR-4
U-251 = tested on: U-251
NCI-H226 = tested on: NCI-H226
M19-MEL = tested on: M19-MEL
SN12C = tested on: SN12C
DMS-273 = tested on: DMS-273
SNB-78 = tested on: SNB-78
HCT-15 = tested on: HCT-15
OVCAR-3 = tested on: OVCAR-3
UO-31 = tested on: UO-31
SW-620 = tested on: SW-620
786-0 = tested on: 786-0
KM-20L2 = tested on: KM-20L2
SK-MEL-2 = tested on: SK-MEL-2
LXFL 529 = tested on: LXFL 529
UACC-62 = tested on: UACC-62
HOP-92 = tested on: HOP-92
HOP-18 = tested on: HOP-18
KM12 = tested on: KM12
NCI-H522 = tested on: NCI-H522
SK-OV-3 = tested on: SK-OV-3
ACHN = tested on: ACHN
SK-MEL-28 = tested on: SK-MEL-28
OVCAR-8 = tested on: OVCAR-8
SF-268 = tested on: SF-268
HOP-62 = tested on: HOP-62
SNB-75 = tested on: SNB-75
OVCAR-5 = tested on: OVCAR-5
TK-10 = tested on: TK-10
HCC 2998 = tested on: HCC 2998
SF-295 = tested on: SF-295
SNB-19 = tested on: SNB-19
NCI-H460 = tested on: NCI-H460
HCT-116 = tested on: HCT-116
IGROV-1 = tested on: IGROV-1
DMS-114 = tested on: DMS-114
A498 = tested on: A498
MOLT-4 = tested on: MOLT-4

With `O=C(O/N=C1/CCCC/C1=C\c1ccccc1)c1ccc(Cl)cc1` the GI50 (CCRF-CEM) was > 100 µM (inactive), the GI50 (RPMI-8226) was > 100 µM (inactive) and the GI50 (EKVX) was 42.1 µM (inactive). For the same compound, the GI50 (HL-60) was 24.7 µM (inactive), the GI50 (CAKI-1) was 84.5 µM (inactive) and the GI50 (M14) was > 100 µM (inactive). The GI50 (K562) was > 100 µM (inactive), the GI50 (UACC-257) was > 100 µM (inactive) and the GI50 (SK-MEL-5) was 89.7 µM (inactive). For the same compound, the GI50 (A549) was > 100 µM (inactive), the GI50 (COLO 205) was > 100 µM (inactive) and the GI50 (NCI-H23) was > 100 µM (inactive). The GI50 (RXF 393) was > 100 µM (inactive), the GI50 (SR) was 56.6 µM (inactive) and the GI50 (Malme-3M) was > 100 µM (inactive). For the same compound, the GI50 (LOX IMVI) was 57.8 µM (inactive), the GI50 (HT-29) was > 100 µM (inactive) and the GI50 (SF-539) was > 100 µM (inactive). For the same compound, the GI50 (XF498) was 0.439 µM (active), the GI50 (DLD-1) was > 100 µM (inactive) and the GI50 (OVCAR-4) was 53 µM (inactive). The GI50 (U-251) was 89.3 µM (inactive), the GI50 (NCI-H226) was > 100 µM (inactive) and the GI50 (M19-MEL) was > 100 µM (inactive). The GI50 (SN12C) was > 100 µM (inactive), the GI50 (DMS-273) was > 100 µM (inactive) and the GI50 (SNB-78) was > 100 µM (inactive). The GI50 (HCT-15) was > 100 µM, the GI50 (OVCAR-3) was > 100 µM (inactive) and the GI50 (UO-31) was > 100 µM (inactive). For the same compound, the GI50 (SW-620) was > 100 µM (inactive), the GI50 (786-0) was > 100 µM (inactive) and the GI50 (KM-20L2) was > 100 µM (inactive). For the same compound, the GI50 (SK-MEL-2) was > 100 µM (inactive), the GI50 (LXFL 529) was 48 µM (inactive) and the GI50 (UACC-62) was > 100 µM (inactive). For the same compound, the GI50 (HOP-92) was 40.9 µM (inactive), the GI50 (HOP-18) was > 100 µM (inactive) and the GI50 (KM12) was > 100 µM (inactive). The GI50 (NCI-H522) was 23.3 µM (inactive), the GI50 (SK-OV-3) was > 100 µM (inactive) and the GI50 (ACHN) was > 100 µM (inactive). For the same compound, the GI50 (SK-MEL-28) was > 100 µM (inactive), the GI50 (OVCAR-8) was > 100 µM (inactive) and the GI50 (SF-268) was > 100 µM (inactive). The GI50 (HOP-62) was > 100 µM (inactive), the GI50 (SNB-75) was 88.7 µM (inactive) and the GI50 (OVCAR-5) was 44.8 µM (inactive). For the same compound, the GI50 (TK-10) was > 100 µM (inactive), the GI50 (HCC 2998) was 0.0177 µM (active) and the GI50 (SF-295) was 47.4 µM (inactive). For the same compound, the GI50 (SNB-19) was > 100 µM (inactive), the GI50 (NCI-H460) was > 100 µM (inactive) and the GI50 (HCT-116) was > 100 µM (inactive). The GI50 (IGROV-1) was > 100 µM (inactive).

With `O=S(=O)(N/N=C/c1ccc(Cl)c(Cl)c1)c1ccccc1` the GI50 (CCRF-CEM) was 48.1 µM (inactive), the GI50 (RPMI-8226) was 47 µM (inactive) and the GI50 (EKVX) was 64.9 µM (inactive). The GI50 (HL-60) was 26.6 µM (inactive), the GI50 (CAKI-1) was 33.2 µM (inactive) and the GI50 (M14) was 60.3 µM (inactive). For the same compound, the GI50 (K562) was 33.5 µM (inactive), the GI50 (UACC-257) was 38.8 µM (inactive) and the GI50 (DMS-114) was 23.8 µM (inactive). For the same compound, the GI50 (A498) was 26.1 µM (inactive), the GI50 (SK-MEL-5) was 54 µM (inactive) and the GI50 (A549) was 39.7 µM (inactive). The GI50 (COLO 205) was 21.6 µM (inactive), the GI50 (NCI-H23) was 36.3 µM (inactive) and the GI50 (RXF 393) was 18.5 µM (inactive). The GI50 (SR) was 42.3 µM (inactive), the GI50 (Malme-3M) was > 100 µM (inactive) and the GI50 (LOX IMVI) was 43.9 µM (inactive). For the same compound, the GI50 (HT-29) was 40.1 µM (inactive), the GI50 (SF-539) was 44.8 µM (inactive) and the GI50 (XF498) was 32.2 µM (inactive). The GI50 (DLD-1) was 31.3 µM (inactive), the GI50 (OVCAR-4) was 55 µM (inactive) and the GI50 (U-251) was 33.7 µM (inactive). For the same compound, the GI50 (NCI-H226) was 58.5 µM (inactive), the GI50 (M19-MEL) was 37.3 µM (inactive) and the GI50 (SN12C) was 37.7 µM (inactive). The GI50 (DMS-273) was 37.7 µM (inactive), the GI50 (SNB-78) was 41.5 µM (inactive) and the GI50 (HCT-15) was 36.1 µM. The GI50 (OVCAR-3) was 24.5 µM (inactive), the GI50 (UO-31) was 27 µM (inactive) and the GI50 (SW-620) was 53 µM (inactive). For the same compound, the GI50 (786-0) was 31.8 µM (inactive), the GI50 (KM-20L2) was 62.1 µM (inactive) and the GI50 (SK-MEL-2) was 34.2 µM (inactive). The GI50 (LXFL 529) was 30.4 µM (inactive), the GI50 (UACC-62) was 46.2 µM (inactive) and the GI50 (HOP-92) was 9.82 µM (inactive). For the same compound, the GI50 (MOLT-4) was 28.1 µM (inactive), the GI50 (HOP-18) was 36.3 µM (inactive) and the GI50 (KM12) was 29 µM (inactive). For the same compound, the GI50 (SK-OV-3) was 39.7 µM (inactive), the GI50 (ACHN) was 43.1 µM (inactive) and the GI50 (SK-MEL-28) was 72.3 µM (inactive). For the same compound, the GI50 (OVCAR-8) was 25.7 µM (inactive), the GI50 (SF-268) was 31 µM (inactive) and the GI50 (HOP-62) was 35.7 µM (inactive). For the same compound, the GI50 (SNB-75) was 52 µM (inactive), the GI50 (OVCAR-5) was 38.2 µM (inactive) and the GI50 (TK-10) was 41.7 µM (inactive). For the same compound, the GI50 (HCC 2998) was 30.2 µM (inactive), the GI50 (SF-295) was 33.9 µM (inactive) and the GI50 (HCT-116) was 35.1 µM (inactive). For the same compound, the GI50 (IGROV-1) was 33.3 µM (inactive).

In the case of `CC1NCCc2c1[nH]c1cc(O)ccc21` (centres undefined), the GI50 (CCRF-CEM) is reported as > 100 µM (inactive), the GI50 (RPMI-8226) is reported as > 100 µM (inactive) and the GI50 (EKVX) is reported as > 100 µM (inactive). For the same compound, the GI50 (HL-60) was > 100 µM (inactive), the GI50 (CAKI-1) was > 100 µM (inactive) and the GI50 (M14) was > 100 µM (inactive). The GI50 (K562) was > 100 µM (inactive), the GI50 (UACC-257) was > 100 µM (inactive) and the GI50 (DMS-114) was > 100 µM (inactive). For the same compound, the GI50 (A498) was > 100 µM (inactive), the GI50 (SK-MEL-5) was > 100 µM (inactive) and the GI50 (A549) was > 100 µM (inactive). For the same compound, the GI50 (COLO 205) was > 100 µM (inactive), the GI50 (NCI-H23) was > 100 µM (inactive) and the GI50 (RXF 393) was > 100 µM (inactive). For the same compound, the GI50 (Malme-3M) was > 100 µM (inactive), the GI50 (LOX IMVI) was > 100 µM (inactive) and the GI50 (HT-29) was > 100 µM (inactive). The GI50 (SF-539) was > 100 µM (inactive), the GI50 (XF498) was > 100 µM (inactive) and the GI50 (DLD-1) was > 100 µM (inactive). For the same compound, the GI50 (OVCAR-4) was > 100 µM (inactive), the GI50 (NCI-H226) was > 100 µM (inactive) and the GI50 (M19-MEL) was > 100 µM (inactive). For the same compound, the GI50 (SN12C) was > 100 µM (inactive), the GI50 (SNB-78) was > 100 µM (inactive) and the GI50 (HCT-15) was > 100 µM. The GI50 (OVCAR-3) was > 100 µM (inactive), the GI50 (UO-31) was > 100 µM (inactive) and the GI50 (SW-620) was > 100 µM (inactive). For the same compound, the GI50 (786-0) was > 100 µM (inactive), the GI50 (KM-20L2) was > 100 µM (inactive) and the GI50 (SK-MEL-2) was > 100 µM (inactive). For the same compound, the GI50 (LXFL 529) was > 100 µM (inactive), the GI50 (UACC-62) was > 100 µM (inactive) and the GI50 (HOP-92) was > 100 µM (inactive). The GI50 (MOLT-4) was > 100 µM (inactive), the GI50 (HOP-18) was > 100 µM (inactive) and the GI50 (KM12) was > 100 µM (inactive). For the same compound, the GI50 (SK-OV-3) was > 100 µM (inactive), the GI50 (ACHN) was > 100 µM (inactive) and the GI50 (SK-MEL-28) was > 100 µM (inactive). For the same compound, the GI50 (OVCAR-8) was > 100 µM (inactive), the GI50 (SF-268) was > 100 µM (inactive) and the GI50 (HOP-62) was > 100 µM (inactive). The GI50 (SNB-75) was > 100 µM (inactive), the GI50 (OVCAR-5) was > 100 µM (inactive) and the GI50 (TK-10) was > 100 µM (inactive). The GI50 (HCC 2998) was > 100 µM (inactive), the GI50 (SF-295) was > 100 µM (inactive) and the GI50 (SNB-19) was > 100 µM (inactive). For the same compound, the GI50 (NCI-H460) was > 100 µM (inactive), the GI50 (HCT-116) was > 100 µM (inactive) and the GI50 (IGROV-1) was > 100 µM (inactive).

— ChEMBL document CHEMBL1201862, “PubChem BioAssay data set” (2004)
